# Reference: PubChem BioAssay (NCI)
#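 Assay format: 96-well plates, 48-hour exposure. TGI: concentration producing complete growth inhibition.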
# Assays:
# Assay in all cases: inhibition of tumour cell growth, NCI panel, 48 h
# 786-0 renal = test system: 786-0 renal
# A498 renal = test system: A498 renal
# A549 NSCLC = test system: A549 NSCLC
# ACHN renal = test system: ACHN renal
# BT-549 breast = test system: BT-549 breast
# CAKI-1 renal = test system: CAKI-1 renal
# CCRF-CEM leukemia = test system: CCRF-CEM leukemia
# COLO 205 colon = test system: COLO 205 colon
# DU-145 prostate = test system: DU-145 prostate
# EKVX NSCLC = test system: EKVX NSCLC
# HCT-116 colon = test system: HCT-116 colon
# HCT-15 colon = test system: HCT-15 colon
# HL-60(TB) leukemia = test system: HL-60(TB) leukemia
# HOP-62 NSCLC = test system: HOP-62 NSCLC
# HOP-92 NSCLC = test system: HOP-92 NSCLC
# HS 578T breast = test system: HS 578T breast
# HT29 colon = test system: HT29 colon
# IGROV1 ovarian = test system: IGROV1 ovarian
# K-562 leukemia = test system: K-562 leukemia
# LOX IMVI melanoma = test system: LOX IMVI melanoma
# M14 melanoma = test system: M14 melanoma
# MALME-3M melanoma = test system: MALME-3M melanoma
# MCF7 breast = test system: MCF7 breast
# MDA-MB-231 breast = test system: MDA-MB-231 breast
# MDA-MB-435 = test system: MDA-MB-435
# MDA-N = test system: MDA-N
# MOLT-4 leukemia = test system: MOLT-4 leukemia
# NCI-H226 lung = test system: NCI-H226 lung
# NCI-H23 lung = test system: NCI-H23 lung
# NCI/ADR-RES ovarian = test system: NCI/ADR-RES ovarian
# OVCAR-3 ovarian = test system: OVCAR-3 ovarian
# OVCAR-4 ovarian = test system: OVCAR-4 ovarian
# OVCAR-5 ovarian = test system: OVCAR-5 ovarian
# OVCAR-8 ovarian = test system: OVCAR-8 ovarian
# PC-3 prostate = test system: PC-3 prostate
# RPMI-8226 leukemia = test system: RPMI-8226 leukemia
# RXF 393 renal = test system: RXF 393 renal
# SF-268 CNS = test system: SF-268 CNS
# SF-295 CNS = test system: SF-295 CNS
# SF-539 CNS = test system: SF-539 CNS
# SK-MEL-2 melanoma = test system: SK-MEL-2 melanoma
# SK-MEL-28 melanoma = test system: SK-MEL-28 melanoma
# SK-MEL-5 melanoma = test system: SK-MEL-5 melanoma
# SK-OV-3 ovarian = test system: SK-OV-3 ovarian
# SN12C renal = test system: SN12C renal
# SNB-19 CNS = test system: SNB-19 CNS
# SNB-75 CNS = test system: SNB-75 CNS
# SR leukemia = test system: SR leukemia
# T-47D breast = test system: T-47D breast
# TK-10 renal = test system: TK-10 renal
# U251 CNS = test system: U251 CNS
# UACC-257 melanoma = test system: UACC-257 melanoma
# UACC-62 melanoma = test system: UACC-62 melanoma
# UO-31 renal = test system: UO-31 renal
# HCC-2998 colon = test system: HCC-2998 colon
# KM12 colon = test system: KM12 colon
# NCI-H460 lung = test system: NCI-H460 lung
# NCI-H522 lung = test system: NCI-H522 lung
# SW-620 colon = test system: SW-620 colon
compound,measurement,setting,value
CN(C)C=Nc1ccc2[nH]c3ccccc3c2c1,TGI,786-0 renal,70 µM
same,TGI,A498 renal,60.1 µM
same,TGI,A549 NSCLC,> 100 µM
same,TGI,ACHN renal,> 100 µM
same,TGI,BT-549 breast,> 100 µM
same,TGI,CAKI-1 renal,> 100 µM
same,TGI,CCRF-CEM leukemia,> 100 µM
same,TGI,COLO 205 colon,30.2 µM
same,TGI,DU-145 prostate,> 100 µM
same,TGI,EKVX NSCLC,> 100 µM
same,TGI,HCT-116 colon,> 100 µM
same,TGI,HCT-15 colon,46.5 µM
same,TGI,HL-60(TB) leukemia,41.7 µM
same,TGI,HOP-62 NSCLC,57.7 µM
same,TGI,HOP-92 NSCLC,39 µM
same,TGI,HS 578T breast,> 100 µM
same,TGI,HT29 colon,43.8 µM
same,TGI,IGROV1 ovarian,> 100 µM
same,TGI,K-562 leukemia,43.4 µM
same,TGI,LOX IMVI melanoma,34.2 µM
same,TGI,M14 melanoma,29.1 µM
same,TGI,MALME-3M melanoma,54.7 µM
same,TGI,MCF7 breast,> 100 µM
same,TGI,MDA-MB-231 breast,43.1 µM
same,TGI,MDA-MB-435,33.9 µM
same,TGI,MDA-N,33 µM
same,TGI,MOLT-4 leukemia,83.3 µM
same,TGI,NCI-H226 lung,84 µM
same,TGI,NCI-H23 lung,> 100 µM
same,TGI,NCI/ADR-RES ovarian,> 100 µM
same,TGI,OVCAR-3 ovarian,> 100 µM
same,TGI,OVCAR-4 ovarian,> 100 µM
same,TGI,OVCAR-5 ovarian,96.5 µM
same,TGI,OVCAR-8 ovarian,> 100 µM
same,TGI,PC-3 prostate,> 100 µM
same,TGI,RPMI-8226 leukemia,60.4 µM
same,TGI,RXF 393 renal,79 µM
same,TGI,SF-268 CNS,> 100 µM
same,TGI,SF-295 CNS,> 100 µM
same,TGI,SF-539 CNS,50.5 µM
same,TGI,SK-MEL-2 melanoma,35.3 µM
same,TGI,SK-MEL-28 melanoma,40 µM
same,TGI,SK-MEL-5 melanoma,30.4 µM
same,TGI,SK-OV-3 ovarian,> 100 µM
same,TGI,SN12C renal,> 100 µM
same,TGI,SNB-19 CNS,> 100 µM
same,TGI,SNB-75 CNS,> 100 µM
same,TGI,SR leukemia,41 µM
same,TGI,T-47D breast,97.7 µM
same,TGI,TK-10 renal,86.2 µM
same,TGI,U251 CNS,68.6 µM
same,TGI,UACC-257 melanoma,30.3 µM
same,TGI,UACC-62 melanoma,40.6 µM
same,TGI,UO-31 renal,88.1 µM
COc1ccc(NC(=S)N/N=C/c2cccc(C)n2)cc1,TGI,786-0 renal,> 65 µM
same,TGI,A498 renal,90 µM
same,TGI,A549 NSCLC,> 100 µM
same,TGI,ACHN renal,19.5 µM
same,TGI,BT-549 breast,> 71 µM
same,TGI,CAKI-1 renal,> 79 µM
same,TGI,CCRF-CEM leukemia,> 54 µM
same,TGI,COLO 205 colon,> 39.6 µM
same,TGI,DU-145 prostate,> 67.1 µM
same,TGI,EKVX NSCLC,> 100 µM
same,TGI,HCC-2998 colon,> 100 µM
same,TGI,HCT-116 colon,> 100 µM
same,TGI,HCT-15 colon,> 100 µM
same,TGI,HL-60(TB) leukemia,6.06 µM
same,TGI,HOP-62 NSCLC,38.4 µM
same,TGI,HOP-92 NSCLC,> 85.5 µM
same,TGI,HS 578T breast,> 100 µM
same,TGI,HT29 colon,14.9 µM
same,TGI,IGROV1 ovarian,24.1 µM
same,TGI,K-562 leukemia,> 100 µM
same,TGI,KM12 colon,> 100 µM
same,TGI,LOX IMVI melanoma,33.2 µM
same,TGI,M14 melanoma,11.2 µM
same,TGI,MALME-3M melanoma,> 100 µM
same,TGI,MCF7 breast,> 100 µM
same,TGI,MDA-MB-231 breast,> 100 µM
same,TGI,MDA-MB-435,> 100 µM
same,TGI,MDA-N,> 100 µM
same,TGI,MOLT-4 leukemia,> 29.3 µM
same,TGI,NCI-H226 lung,53.8 µM
same,TGI,NCI-H23 lung,> 100 µM
same,TGI,NCI-H460 lung,> 42.9 µM
same,TGI,NCI-H522 lung,5.73 µM
same,TGI,NCI/ADR-RES ovarian,> 26.6 µM
same,TGI,OVCAR-3 ovarian,> 100 µM
same,TGI,OVCAR-4 ovarian,> 100 µM
same,TGI,OVCAR-5 ovarian,> 100 µM
same,TGI,OVCAR-8 ovarian,> 35.4 µM
same,TGI,PC-3 prostate,> 100 µM
same,TGI,RPMI-8226 leukemia,62.1 µM
same,TGI,SF-268 CNS,> 66.9 µM
same,TGI,SF-295 CNS,40.3 µM
same,TGI,SF-539 CNS,34.2 µM
same,TGI,SK-MEL-2 melanoma,> 100 µM
same,TGI,SK-MEL-28 melanoma,> 100 µM
same,TGI,SK-MEL-5 melanoma,> 36.5 µM
same,TGI,SK-OV-3 ovarian,46.2 µM
same,TGI,SN12C renal,> 100 µM
same,TGI,SNB-19 CNS,> 100 µM
same,TGI,SNB-75 CNS,81.8 µM
same,TGI,SR leukemia,> 37.5 µM
same,TGI,SW-620 colon,> 100 µM
same,TGI,T-47D breast,> 100 µM
same,TGI,TK-10 renal,> 100 µM
same,TGI,U251 CNS,24.6 µM
same,TGI,UACC-62 melanoma,10.7 µM
same,TGI,UO-31 renal,18 µM
